How the values were obtained:
[1] = Valspodar blood concentrations by radioimmunoassay; assay type: in vivo, pediatric patients; conditions: at some point during the infusion
[2] = not given; remark: listed apart in the source
[3] = adults with leukemia, with mitoxantrone, etoposide, cytarabine; cited from earlier work
[4] = during valspodar infusion, resolved after completion, all dose levels

Row | decrease of clearance when combined with valspodar (day 4 with valspodar versus day 1 pre-valspodar) [%] | V1 (volume of the central compartment) (in vivo) [L] | V2 (volume in the peripheral compartment) (in vivo) [L] | Compound | CL0 (baseline clearance) (in vivo) [L/h] | Q (inter-compartmental clearance) (in vivo) [L/h] | valspodar concentration achieved in all patients [1] | patients with cerebellar toxicity (ataxia or dizziness) ([2]; all dose levels, 21 evaluable, one grade 3, two grade 2, two grade 1) | patients with transient hyperbilirubinemia ([2]; all dose levels, evaluable for toxicity) | transient hyperbilirubinemia, median maximum [2, 4] [mg/dL] | transient hyperbilirubinemia, range of maximum [2, 4] [mg/dL] | patients with valspodar infusion-related transaminase elevations ([2]; one grade 1, two grade 2, one grade 3, self-resolved) | maximum tolerated dose (MTD) in adults [3] [mg/kg/day]
1 |  |  |  | O=C1c2c(O)ccc(O)c2C(=O)c2c(NCCNCCO)ccc(NCCNCCO)c21 [mitoxantrone] | 16.4 | 8.13 |  |  |  |  |  |  | 
2 | 60 | 3.58 | 3.82 | COc1cc([C@@H]2c3cc4c(cc3[C@@H](O[C@@H]3O[C@@H]5CO[C@@H](C)O[C@H]5[C@H](O)[C@H]3O)[C@H]3COC(=O)[C@H]23)OCO4)cc(OC)c1O [etoposide] | 1.52 | 2.38 |  |  |  |  |  |  | 
3 |  |  |  | C/C=C/C[C@@H](C)C(=O)[C@H]1C(=O)N[C@@H](C(C)C)C(=O)N(C)CC(=O)N(C)[C@@H](CC(C)C)C(=O)N[C@@H](C(C)C)C(=O)N(C)[C@@H](CC(C)C)C(=O)N[C@@H](C)C(=O)N[C@H](C)C(=O)N(C)[C@@H](CC(C)C)C(=O)N(C)[C@@H](CC(C)C)C(=O)N(C)[C@@H](C(C)C)C(=O)N1C [valspodar, Valspodar] |  |  | 1,000 ng/mL | five | 16 of 21 | 2 | 0.8 to 6.6 | Four | 10
